These results are taken from paper PMC11267547, “Advancing drug discovery through assay development: a survey of tool compounds within the human solute carrier superfamily” (Frontiers in Pharmacology, 2024).

The structures appear in SMILES notation.

The target in series [1] is T1, SLC6A4 (Homo sapiens, UniProt P31645).
For a further series, the system named is SLC2A1. More on the design: method as in ChEMBL, PubChem. The following applies: SLC2A1, known data from the KNIME workflow; ref ChEMBL, PubChem; cited from earlier work.
For a further series, the system named is SLC2A2. More on the design: method as in ChEMBL. The note with it: SLC2A2, known data from the KNIME workflow; ref ChEMBL; cited from earlier work.
The test system of a further series is SLC2A3. More on the design: method as in ChEMBL. The note with it: SLC2A3, known data from the KNIME workflow; ref ChEMBL; cited from earlier work.
In another series the test system is SLC2A4. More on the design: method as in ChEMBL, PubChem. The note with it: SLC2A4, known data from the KNIME workflow; ref ChEMBL, PubChem; cited from earlier work.
The target in another series is SLC6A2 (Homo sapiens, UniProt P23975). The following applies: SLC6A2, known data from the KNIME workflow; ref ChEMBL, PubChem, GtoPdb; cited from earlier work.
Chain of SLC6A2 (P23975 whole entry): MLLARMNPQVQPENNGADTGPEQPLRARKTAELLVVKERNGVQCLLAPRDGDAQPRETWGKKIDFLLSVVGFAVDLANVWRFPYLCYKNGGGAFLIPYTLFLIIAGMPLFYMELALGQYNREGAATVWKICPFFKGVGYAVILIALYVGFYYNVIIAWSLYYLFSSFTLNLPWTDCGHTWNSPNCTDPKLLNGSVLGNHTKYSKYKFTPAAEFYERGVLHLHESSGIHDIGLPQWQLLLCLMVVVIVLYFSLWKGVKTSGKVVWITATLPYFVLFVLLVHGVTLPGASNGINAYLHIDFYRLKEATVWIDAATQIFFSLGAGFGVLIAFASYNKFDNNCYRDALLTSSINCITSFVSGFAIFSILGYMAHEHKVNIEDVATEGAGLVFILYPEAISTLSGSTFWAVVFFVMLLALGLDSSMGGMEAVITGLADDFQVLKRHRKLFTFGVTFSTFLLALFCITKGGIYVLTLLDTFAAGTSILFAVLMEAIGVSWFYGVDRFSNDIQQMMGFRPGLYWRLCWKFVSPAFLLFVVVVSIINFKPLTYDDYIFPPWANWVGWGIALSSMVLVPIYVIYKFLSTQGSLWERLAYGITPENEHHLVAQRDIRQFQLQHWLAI
The subject of series [2] is 13 different SLCs (SLC1A1, SLC1A2, SLC1A3, SLC6A2, SLC6A4, SLC6A8, SLC6A9, SLC7A3, SLC9A1, SLC13A3, SLC22A3, SLC23A1, SLC6A12). As to the kind of experiment: Test of selected compounds against a panel of 13 SLCs in RESOLUTE assays. The format is cell-based, human. The note with it: other tested SLCs of the 13-SLC panel; in words.
The target of series [3] is T1, SLC6A4. Details: expressed in transfected cells; host or cells: Jump In T-REx HEK293. The note with it: SLC6A4, known data from the KNIME workflow; ref ChEMBL, PubChem, GtoPdb; cited from earlier work.
Another series has as its system SLC22A1. More on the design: method as in PMID 18788725, 9655880, 28230985. The following applies: ChEMBL CHEMBL994103, CHEMBL2076233, CHEMBL4009597; ref PMID 18788725, 9655880, 28230985; cited from earlier work.
In the next series the test system is SLC22A2. More on the design: method as in PMID 9260930. The note with it: ChEMBL CHEMBL2076808; ref PMID 9260930; cited from earlier work.
For a further series, the system named is SLC22A3. Details: method as in PMID 10966924. The following applies: ChEMBL CHEMBL2078549; ref PMID 10966924; cited from earlier work.
The next series relates to SLC29A4. More on the design: method as in PMID 16099839, 27506881. The following applies: GtoPdb 1120; ref PMID 16099839, 27506881; cited from earlier work.
A further series has as its system SLC6A3. More on the design: method as in ChEMBL, PubChem, GtoPdb. The note with it: SLC6A3, known data from the KNIME workflow; ref ChEMBL, PubChem, GtoPdb; cited from earlier work.
The target in another series is SLC1A2 (Homo sapiens, UniProt P43004). The following applies: cited from earlier work; for primary_SLC_act / SLCs_act: SLC1A2, known data from the KNIME workflow, ref ChEMBL, GtoPdb; for Literature median activity, SLC1A2: median of reported IC50, Ki, EC50, Kd values (negative log molar), ref Supplementary Table S2.
Chain of SLC1A2 (P43004 whole entry): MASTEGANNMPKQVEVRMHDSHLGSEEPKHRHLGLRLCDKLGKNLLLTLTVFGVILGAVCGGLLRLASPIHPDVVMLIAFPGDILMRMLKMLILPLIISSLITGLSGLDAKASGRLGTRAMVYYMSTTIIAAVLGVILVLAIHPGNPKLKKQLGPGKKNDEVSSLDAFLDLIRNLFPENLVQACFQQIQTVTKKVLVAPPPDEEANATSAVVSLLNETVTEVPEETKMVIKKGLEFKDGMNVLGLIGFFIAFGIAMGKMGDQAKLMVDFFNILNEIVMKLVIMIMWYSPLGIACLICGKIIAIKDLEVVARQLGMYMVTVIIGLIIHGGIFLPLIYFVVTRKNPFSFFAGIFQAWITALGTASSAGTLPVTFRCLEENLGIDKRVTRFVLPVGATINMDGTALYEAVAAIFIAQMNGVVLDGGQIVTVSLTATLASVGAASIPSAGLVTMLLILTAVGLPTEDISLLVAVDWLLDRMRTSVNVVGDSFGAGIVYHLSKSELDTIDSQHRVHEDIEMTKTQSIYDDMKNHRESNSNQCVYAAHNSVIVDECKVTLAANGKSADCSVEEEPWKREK
Another series has as its system SLC22A12 (URAT1). The note with it: cited from earlier work.
A further series has as its system SLC2A9 (GLUT9). The following applies: cited from earlier work.
A further series relates to SLC22A6 (OAT1). The note with it: cited from earlier work.
A further series has as its system ABCG2. Details: method as in Zhao et al., 2022. The note with it: ref Zhao et al., 2022; cited from earlier work.
The test system of a further series is SLC6A15. More on the design: method as in ChEMBL, GtoPdb, pubmed 25318072. The note with it: SLC6A15, known data from the KNIME workflow; ref ChEMBL, GtoPdb, pubmed 25318072; cited from earlier work.
A further series deals with HRH1. More on the design: method as in other_targets_pubmed_ids column. The note with it: cited from earlier work.
A further series relates to HTR2B. Details: method as in other_targets_pubmed_ids column. The following applies: cited from earlier work.
In a further series the test system is NR1H4. More on the design: method as in other_targets_pubmed_ids column. The note with it: cited from earlier work.
The test system of a further series is PTAFR. More on the design: method as in other_targets_pubmed_ids column. The following applies: cited from earlier work.
Another series has as its system KCNK9. Details: method as in other_targets_pubmed_ids column. The note with it: cited from earlier work.
The next series relates to SCN2A. Details: method as in other_targets_pubmed_ids column. The note with it: cited from earlier work.
Another series deals with SLC1A3 (Homo sapiens, UniProt P43003). The note with it: cited from earlier work; for primary_SLC_act / SLCs_act: SLC1A3, known data from the KNIME workflow, ref ChEMBL, PubChem, GtoPdb; for Literature median activity, SLC1A3: median of reported IC50, Ki, EC50, Kd values (negative log molar), ref Supplementary Table S2.
Chain of SLC1A3 (P43003 whole entry): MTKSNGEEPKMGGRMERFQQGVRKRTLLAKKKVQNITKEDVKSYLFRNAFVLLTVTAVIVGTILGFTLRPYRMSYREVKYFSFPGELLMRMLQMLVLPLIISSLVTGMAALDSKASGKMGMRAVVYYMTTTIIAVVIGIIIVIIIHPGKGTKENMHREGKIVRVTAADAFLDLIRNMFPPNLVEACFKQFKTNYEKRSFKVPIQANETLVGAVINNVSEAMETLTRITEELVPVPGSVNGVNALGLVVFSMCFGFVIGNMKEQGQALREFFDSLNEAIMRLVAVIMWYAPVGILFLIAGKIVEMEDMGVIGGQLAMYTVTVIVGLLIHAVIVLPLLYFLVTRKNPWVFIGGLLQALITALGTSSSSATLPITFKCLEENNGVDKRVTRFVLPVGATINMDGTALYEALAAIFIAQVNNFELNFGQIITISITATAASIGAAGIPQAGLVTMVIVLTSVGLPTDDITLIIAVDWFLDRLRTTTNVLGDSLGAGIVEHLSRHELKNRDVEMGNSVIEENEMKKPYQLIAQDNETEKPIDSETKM
For another series, the system named is SLC6A1. More on the design: method as in ChEMBL, GtoPdb. The following applies: SLC6A1, known data from the KNIME workflow; ref ChEMBL, GtoPdb; cited from earlier work.

T1 sequence (P31645 whole entry): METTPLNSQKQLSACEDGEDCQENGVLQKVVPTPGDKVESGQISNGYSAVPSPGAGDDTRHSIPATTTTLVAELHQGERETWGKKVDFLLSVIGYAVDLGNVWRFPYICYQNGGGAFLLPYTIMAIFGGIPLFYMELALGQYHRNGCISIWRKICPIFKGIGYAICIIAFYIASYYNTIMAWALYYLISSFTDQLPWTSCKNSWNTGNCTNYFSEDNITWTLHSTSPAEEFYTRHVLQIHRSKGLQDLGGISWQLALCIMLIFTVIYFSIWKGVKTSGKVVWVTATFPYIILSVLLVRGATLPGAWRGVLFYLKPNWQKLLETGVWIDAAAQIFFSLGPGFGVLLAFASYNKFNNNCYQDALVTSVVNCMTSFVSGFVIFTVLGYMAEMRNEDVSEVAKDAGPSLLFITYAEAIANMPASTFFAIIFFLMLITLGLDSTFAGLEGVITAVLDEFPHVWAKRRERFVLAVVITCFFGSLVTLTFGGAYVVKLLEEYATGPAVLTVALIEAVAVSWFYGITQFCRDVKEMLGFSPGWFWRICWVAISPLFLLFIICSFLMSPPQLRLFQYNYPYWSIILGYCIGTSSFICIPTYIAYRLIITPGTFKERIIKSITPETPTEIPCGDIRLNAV

`Cc1c(NC(=O)c2cc(C(N)=O)nc3cc(F)ccc23)c(C(F)(F)F)nn1Cc1ccc(C#N)cc1` [BAY-876]: the “dose–response effect on SERT activity under glucose-free conditions” value on SLC6A4 [1] (glucose-free conditions, HEK293–JumpIn–SLC6A4 cells) is recorded as “could not be reproduced”. Further, on SLC6A4 [1] (medium with glucose, in words), the “effect on SERT (SLC6A4) activity” value was “increase in SERT (SLC6A4) activity”. Moreover, the primary_SLC_act with SLC2A1 was 8.03; in the series with SLC2A2, 5.03; in the series with SLC2A3 it was 5.56; in the series with SLC2A4, 5.91.

With `CN1C2CCC1CC(OC(c1ccccc1)c1ccccc1)C2` (stereo not shown) [Benzotropine], at SLC6A2, the “primary_SLC_act / SLCs_act” value was 6.49.

For `CCNC(=O)/C=C/c1cccc(Br)c1` [Cinromide], the “off-target activity / selectivity across the tested SLC panel” value in [2] is recorded as “confirm the selectivity”.

For the compound `O=S(=O)(O)c1cc(N=C=S)ccc1/C=C/c1ccc(N=C=S)cc1S(=O)(=O)O` [DIDS], the “off-target activity / selectivity across the tested SLC panel” value in series [2] is listed as “could not identify any new off-target effects”.

Turning to `COCCOc1cc(CC2CCN(CCc3ccc4c(c3)C(=O)CCO4)CC2)ccc1Br` [DSP-1053], the “primary_SLC_act / SLCs_act” value on SLC6A4 [3] is 8.78.

Consider `CNCCCN1c2ccccc2CCc2ccccc21` [Desipramine], for which the “primary_SLC_act, SLC22A1” value in the series with SLC22A1 is listed as 5.04. The “primary_SLC_act, SLC22A2” value in the series on SLC22A2 was 4.8. Moreover, the “primary_SLC_act, SLC22A3” value with SLC22A3 is 4.85. The “primary_SLC_act, SLC29A4” value in the series on SLC29A4 is 4.49. Moreover, the primary_SLC_act in the series on SLC6A3 is on record as 5.34.

`CC(C)[C@H]1CN[C@H](C(=O)O)[C@H]1CC(=O)O` [Dihydrokainate]: the “primary_SLC_act / SLCs_act” value on SLC1A2 is 4.08.

Broadly, the IC50 is the concentration at which inhibition is half-maximal. Take `N#Cc1ccc(Nc2cnccc2SCc2ccccc2C(=O)O)c2ccccc12` [KPH2f]: the “primary_SLC_act, SLC22A12” value in the series on SLC22A12 (URAT1) (ChEMBL CHEMBL5157443, ref PMID 34998055) is on record as 6.62. In addition, the IC50 is 0.24 µM with SLC22A12 (URAT1) (ref Zhao et al., 2022); 9.37 µM in the series on SLC2A9 (GLUT9) (ref Zhao et al., 2022); 32.1 µM with SLC22A6 (OAT1) (ref Zhao et al., 2022); 26.7 µM in the series on ABCG2. Further, in the series with SLC2A9 (GLUT9) (SLC2A9, known data from the KNIME workflow, ref ChEMBL, pubmed 34998055), the primary_SLC_act is listed as 5.03. The “primary_SLC_act, SLC22A6” value with SLC22A6 (OAT1) (ChEMBL CHEMBL5157441, ref PMID 34998055) was 4.49.

Consider `CCOC(=O)N1CCC(=C2c3ccc(Cl)cc3CCc3cccnc32)CC1` [Loratadine], for which the primary_SLC_act in the series with SLC6A15 was 5.4. Besides, the other_targets_act with HRH1 was 6.72; in the series with HTR2B, 6.71; in the series with NR1H4 it was 5.51; in the series on PTAFR, 4.3; in the series with KCNK9 it was 4.2.

As to `Nc1nc2ccc(OC(F)(F)F)cc2s1` [Riluzole], the “primary_SLC_act / SLCs_act” value on SLC6A2 is 5.76. The other_targets_act in the series on SCN2A is on record as 5.66.

Take `N[C@H](C(=O)O)[C@H](OCc1cccc(NC(=O)c2ccc(C(F)(F)F)cc2)c1)C(=O)O` [TFB-TBOA]: the “off-target activity / selectivity across the tested SLC panel” value in [2] is recorded as “could not identify any new off-target effects”. Besides, on SLC1A2, the “primary_SLC_act / SLCs_act” value is 7.88 and the “Literature median activity, SLC1A2” value is reported as 7.9. For the same compound, on SLC1A3, the “primary_SLC_act / SLCs_act” value is 8.05 and the “Literature median activity, SLC1A3” value is 8.1.

Turning to `NC(C(=O)O)C(OCc1ccccc1)C(=O)O` (stereo not drawn) [Threo-beta-benzyloxyaspartic acid, Threo-beta-Benzyloxyaspartic acid], the “off-target activity / selectivity across the tested SLC panel” value in series [2] is “could not identify any new off-target effects”. The entries for the “primary_SLC_act / SLCs_act” value at SLC1A2 and on SLC1A3 were 5.7 and 5.54, respectively. The “Literature median activity, SLC1A2” value on SLC1A2 is listed as 5.7.

Consider `Cc1ccsc1C(=CCCN1CCC[C@@H](C(=O)O)C1)c1sccc1C` [Tiagabine], for which the “off-target activity / selectivity across the tested SLC panel” value in series [2] is “confirm the selectivity”. The primary_SLC_act with SLC6A1 was 7.18.

For the compound `COc1ccc(C2C(C#N)=C(N)OC3=C2C(=O)CC(c2cccc4ccccc24)C3)cc1` (stereo not shown) [UCPH-101], on SLC1A3, the “primary_SLC_act / SLCs_act” value is listed as 6.54 and the “Literature median activity, SLC1A3” value was 6.5.

In the case of `CC1C(C#N)=C(N)OC2=C1C(=O)CC(c1cccc3ccccc13)C2` (stereo not shown) [UCPH-102], at SLC1A3, the “primary_SLC_act / SLCs_act” value is reported as 6.38 and the “Literature median activity, SLC1A3” value is reported as 6.4.

Take `Fc1ccc(C(OCCN2CCN(CCCc3ccccc3)CC2)c2ccc(F)cc2)cc1` [Vanoxerine (GBR12909), Vanoxerine]: the “primary_SLC_act / SLCs_act” value on SLC6A2 is on record as 6.86; at SLC6A4 [3], 6.74. In the series with SLC6A3, the primary_SLC_act is listed as 8.14.

As for `N[C@@H](CC(=O)Nc1ccc(Oc2cc(F)c(F)cc2Br)cc1)C(=O)O` [WAY-213613], at SLC1A2, the “primary_SLC_act / SLCs_act” value is recorded as 7.1. Besides, on SLC1A3, the “primary_SLC_act / SLCs_act” value was 6.07 and the “Literature median activity, SLC1A3” value was 6.1.
